According to US20120040955A1 (priority 2009, published 2012):

How the values were obtained:
[1] = biological target: T1, JAK3 (Homo sapiens, UniProt P52333); assay: kinobeads assay (competition with affinity matrix in mixed Molt4/Ramos cell lysate, dot blot detection), JAK3; format: binding; conditions: activity level
T1 construct: endogenous in cells; host or cells: Mixed Molt4 / Ramos cell lysate (1:2)
T1 sequence (P52333 1-1124): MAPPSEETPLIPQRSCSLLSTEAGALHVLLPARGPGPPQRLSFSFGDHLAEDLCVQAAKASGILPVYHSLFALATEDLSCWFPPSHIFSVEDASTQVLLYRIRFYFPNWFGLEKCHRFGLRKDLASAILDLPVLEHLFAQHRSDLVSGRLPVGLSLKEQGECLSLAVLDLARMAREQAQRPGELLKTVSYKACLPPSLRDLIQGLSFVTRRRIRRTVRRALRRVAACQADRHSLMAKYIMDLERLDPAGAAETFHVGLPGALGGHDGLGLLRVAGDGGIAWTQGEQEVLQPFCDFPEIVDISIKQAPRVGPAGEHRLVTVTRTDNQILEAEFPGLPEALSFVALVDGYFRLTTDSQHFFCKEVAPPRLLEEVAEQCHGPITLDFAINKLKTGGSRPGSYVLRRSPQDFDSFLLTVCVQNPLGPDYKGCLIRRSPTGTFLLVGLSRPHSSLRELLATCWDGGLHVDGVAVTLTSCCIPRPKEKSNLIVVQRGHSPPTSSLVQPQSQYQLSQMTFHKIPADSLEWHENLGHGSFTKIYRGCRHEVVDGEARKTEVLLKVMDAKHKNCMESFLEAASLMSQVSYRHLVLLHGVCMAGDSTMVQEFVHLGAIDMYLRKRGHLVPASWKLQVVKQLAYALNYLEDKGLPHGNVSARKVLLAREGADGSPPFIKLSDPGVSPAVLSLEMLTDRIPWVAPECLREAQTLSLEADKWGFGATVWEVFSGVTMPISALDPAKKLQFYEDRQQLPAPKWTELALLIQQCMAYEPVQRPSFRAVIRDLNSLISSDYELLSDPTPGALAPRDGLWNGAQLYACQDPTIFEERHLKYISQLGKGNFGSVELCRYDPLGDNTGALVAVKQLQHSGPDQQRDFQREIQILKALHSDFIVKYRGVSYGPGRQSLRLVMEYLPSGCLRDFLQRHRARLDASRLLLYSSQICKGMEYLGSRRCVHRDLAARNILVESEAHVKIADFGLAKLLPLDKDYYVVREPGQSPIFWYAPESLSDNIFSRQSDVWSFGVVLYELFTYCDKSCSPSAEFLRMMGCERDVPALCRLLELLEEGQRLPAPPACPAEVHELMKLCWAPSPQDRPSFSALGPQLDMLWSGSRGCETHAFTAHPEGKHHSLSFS
Protocol: (§1) The compounds of the present invention as described in the previous examples were tested in a kinobeads assay as described for ZAP-70 (WO-A 2007/137867). Briefly, test compounds (at various concentrations) and the affinity matrix with the immobilized aminopyrido-pyrimidine ligand 24 were added to cell lysate aliquots and allowed to bind to the proteins in the lysate sample. After the incubation time the beads with captured proteins were separated from the lysate. Bound proteins were then eluted and the presence of, JAK2 and JAK3 was detected and quantified using specific antibodies in a dot blot procedure and the Odyssey infrared detection system. Dose response curves for individual kinases were generated and IC50 values calculated. Kinobeads assays for ZAP-70 (WO-A 2007/137867) and for kinase selectivity profiling (WO-A 2006/134056) have been previously described.
(§2) 5× DP buffer: 250 mM Tris-HCl pH 7.4, 25% Glycerol, 7.5 mM MgCl2, 750 mM NaCl, 5 mM Na3VO4; filter the 5× DP buffer through a 0.22 μm filter and store in aliquots at −80° C. The 5× DP buffer is diluted with H2O to 1× DP buffer containing 1 mM DTT and 25 mM NaF.
(§3) Stock solutions of test compounds were prepared in DMSO. In a 96 well plate 30 μl solution of diluted test compounds at 5 mM in DMSO were prepared. Starting with this solution a 1:3 dilution series (9 steps) was prepared. For control experiments (no test compound) a buffer containing 2% DMSO was used.
(§4) Molt4 cells (ATCC catalogue number CRL-1582) and Ramos cells (ATCC catalogue number CRL-1596) were grown in 1 litre Spinner flasks (Integra Biosciences, #182101) in suspension in RPMI 1640 medium (Invitrogen, #21875-034) supplemented with 10% Fetal Bovine Serum (Invitrogen) at a density between 0.15×10^6 and 1.2×10^6 cells/ml. Cells were harvested by centrifugation, washed once with 1× PBS buffer (Invitrogen, #14190-094) and cell pellets were frozen in liquid nitrogen and subsequently stored at −80° C. Cells were homogenized in a Potter S homogenizer in lysis buffer: 50 mM Tris-HCl, 0.8% NP40, 5% glycerol, 150 mM NaCl, 1.5 mM MgCl2, 25 mM NaF, 1 mM sodium vanadate, 1 mM DTT, pH 7.5. One complete EDTA-free tablet (protease inhibitor cocktail, Roche Diagnostics, 1873580) per 25 ml buffer was added. The material was dounced 10 times using a mechanized POTTER S, transferred to 50 ml falcon tubes, incubated for 30 minutes on ice and spun down for 10 min at 20,000 g at 4° C. (10,000 rpm in Sorvall SLA600, precooled). The supernatant was transferred to an ultracentrifuge (UZ)-polycarbonate tube (Beckmann, 355654) and spun for 1 hour at 100.000 g at 4° C. (33.500 rpm in Ti50.2, precooled). The supernatant was transferred again to a fresh 50 ml falcon tube, the protein concentration was determined by a Bradford assay (BioRad) and samples containing 50 mg of protein per aliquot were prepared. The samples were immediately used for experiments or frozen in liquid nitrogen and stored frozen at −80° C.
(§5) Cell lysate (approximately 50 mg protein per plate) was thawed in a water bath at room temperature and then kept on ice. To the thawed cell lysate 1× DP 0.8% NP40 buffer containing protease inhibitors (1 tablet for 25 ml buffer; EDTA-free protease inhibitor cocktail; Roche Diagnostics 1873580) was added in order to reach a final protein concentration of 5 mg/ml total protein. The diluted cell lysate was stored on ice. Mixed Molt4/Ramos lysate was prepared by combining one volume of Molt4 lysate and two volumes of Ramos lysate (ratio 1:2).
(§6) To a 96 well filter plate (Multiscreen HTS, BV Filter Plates, Millipore #MSBVN1250) were added per well: 100 μl affinity matrix (3% beads slurry), 3 μl of compound solution, and 50 μl of diluted lysate. Plates were sealed and incubated for three hours in a cold room on a plate shaker (Heidolph tiramax 1000) at 750 rpm. Afterwards the plate was washed twice with 230 μl washing buffer (1× DP 0.4% NP40). […]

[2] = biological target: T2, JAK2 (Homo sapiens, UniProt O60674); assay: kinobeads assay (competition with affinity matrix in mixed Molt4/Ramos cell lysate, dot blot detection), JAK2; format: binding; conditions: activity level
T2 construct: endogenous in cells; host or cells: Mixed Molt4 / Ramos cell lysate (1:2)
Protocol: as §1, §2, §3, §4, §5, §6

T2 sequence (O60674 whole entry): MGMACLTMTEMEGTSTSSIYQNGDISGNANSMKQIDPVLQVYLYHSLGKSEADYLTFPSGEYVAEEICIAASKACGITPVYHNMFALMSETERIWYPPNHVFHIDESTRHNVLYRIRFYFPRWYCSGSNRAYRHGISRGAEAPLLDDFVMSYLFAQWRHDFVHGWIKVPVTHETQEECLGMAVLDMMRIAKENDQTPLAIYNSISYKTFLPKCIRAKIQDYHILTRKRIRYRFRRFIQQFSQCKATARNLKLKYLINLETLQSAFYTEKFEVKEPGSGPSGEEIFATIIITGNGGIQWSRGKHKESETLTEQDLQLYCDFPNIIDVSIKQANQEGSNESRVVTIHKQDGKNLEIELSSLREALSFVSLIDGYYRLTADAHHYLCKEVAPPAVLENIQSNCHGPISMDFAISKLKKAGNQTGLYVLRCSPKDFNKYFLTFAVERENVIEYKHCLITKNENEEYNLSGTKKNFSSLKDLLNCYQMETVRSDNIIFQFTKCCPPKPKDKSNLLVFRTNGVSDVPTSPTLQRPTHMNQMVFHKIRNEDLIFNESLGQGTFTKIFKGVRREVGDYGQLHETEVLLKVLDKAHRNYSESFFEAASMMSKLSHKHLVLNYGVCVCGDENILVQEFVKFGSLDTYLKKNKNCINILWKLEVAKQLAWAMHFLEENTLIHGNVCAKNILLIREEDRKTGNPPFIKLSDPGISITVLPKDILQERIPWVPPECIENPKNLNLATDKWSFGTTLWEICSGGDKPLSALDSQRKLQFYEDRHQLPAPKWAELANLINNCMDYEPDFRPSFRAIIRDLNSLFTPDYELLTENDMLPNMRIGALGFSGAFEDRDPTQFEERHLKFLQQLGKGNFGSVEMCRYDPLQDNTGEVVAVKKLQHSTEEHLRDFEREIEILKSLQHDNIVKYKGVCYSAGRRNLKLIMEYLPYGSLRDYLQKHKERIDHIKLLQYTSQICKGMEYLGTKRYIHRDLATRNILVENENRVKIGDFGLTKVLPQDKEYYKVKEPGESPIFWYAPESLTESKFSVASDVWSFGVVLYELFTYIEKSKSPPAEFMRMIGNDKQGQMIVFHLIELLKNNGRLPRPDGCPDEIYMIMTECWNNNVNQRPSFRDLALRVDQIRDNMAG

SMILES | IC50 [1] | IC50 [2]
CS(=O)(=O)Nc1ccccc1Nc1nc(Nc2ccc(C#N)cc2F)ncc1Cl [Example 26, N-(2-(5-chloro-2-(4-cyano-2-fluorophenylamino)pyrimidin-4-ylamino)phenyl)methanesulfonamide] | 100 to 1000 nM | > 10000 nM
CS(=O)(=O)Nc1ccccc1Nc1nc(Nc2cc(C#N)ccc2F)ncc1Cl [Example 28, N-(2-(5-chloro-2-(5-cyano-2-fluorophenylamino)pyrimidin-4-ylamino)phenyl)methanesulfonamide] | < 100 nM | > 10000 nM
CS(=O)(=O)Nc1ccccc1Nc1nc(Nc2cc(C(N)=O)ccc2F)ncc1F [Example 29, 4-fluoro-3-(5-fluoro-4-(2-(methylsulfonamido)phenylamino)pyrimidin-2-ylamino)benzamide] | 100 to 1000 nM | > 10000 nM
CNC(=O)c1ccc(F)c(Nc2ncc(F)c(Nc3ccccc3NS(C)(=O)=O)n2)c1 [Example 30, 3-(5-fluoro-4-(2-(methylsulfonamido)phenylamino)pyrimidin-2-ylamino)-4-fluoro-N-methybenzamide] | 100 to 1000 nM | > 10000 nM
CC(C)NC(=O)c1ccc(F)c(Nc2ncc(F)c(Nc3ccccc3NS(C)(=O)=O)n2)c1 [Example 31] | 100 to 1000 nM | > 10000 nM
CS(=O)(=O)Nc1ccccc1Nc1nc(Nc2cc(C(=O)NC3CC3)ccc2F)ncc1F [Example 32, 3-(5-fluoro-4-(2-(methylsulfonamido)phenylamino)pyrimidin-2-ylamino)-N-cyclopropyl-4-fluorobenzamide] | 100 to 1000 nM | > 10000 nM
CCNC(=O)c1ccc(F)c(Nc2ncc(Cl)c(Nc3ccccc3NS(=O)(=O)CC)n2)c1 [Example 39, 3-(5-chloro-4-(2-(ethylsulfonamido)phenylamino)pyrimidin-2-ylamino)-N-ethyl-4-fluorobenzamide] | < 100 nM | > 10000 nM
CCN(CC)C(=O)c1ccc(F)c(Nc2ncc(Cl)c(Nc3ccccc3NS(=O)(=O)CC)n2)c1 [Example 40, 3-(5-chloro-4-(2-(ethylsulfonamido)phenylamino)pyrimidin-2-ylamino)-N,N-diethyl-4-fluorobenzamide] | < 100 nM | > 10000 nM
CCS(=O)(=O)Nc1ccccc1Nc1nc(Nc2cc(C(=O)N3CCCC3)ccc2F)ncc1Cl [Example 41, N-(2-(5-chloro-2-(2-fluoro-5-(pyrrolidine-1-carbonyl)phenylamino)pyrimidin-4-ylamino)phenyl)ethanesulfonamide] | 100 to 1000 nM | > 10000 nM
CCS(=O)(=O)Nc1ccccc1Nc1nc(Nc2cc(C(=O)NC3CC3)ccc2F)ncc1Cl [Example 42, 3-(5-chloro-4-(2-(ethylsulfonamido)phenylamino)pyrimidin-2-ylamino)-N-cyclopropyl-4-fluorobenzamide] | < 100 nM | > 10000 nM
CCS(=O)(=O)Nc1ccccc1Nc1nc(Nc2cc(C#N)ccc2F)ncc1Cl [Example 43, N-(2-(5-chloro-2-(5-cyano-2-fluorophenylamino)pyrimidin-4-ylamino)phenyl)ethanesulfonamide] | 100 to 1000 nM | > 10000 nM
CCNC(=O)c1ccc(F)c(Nc2ncc(Cl)c(Nc3ccccc3NS(=O)(=O)CC(F)(F)F)n2)c1 [Example 44, 3-(5-chloro-4-(2-(2,2,2-trifluoroethylsulfonamido)phenylamino)pyrimidin-2-ylamino)-N-ethyl-4-fluorobenzamide] | 100 to 1000 nM | > 10000 nM
COCCNC(=O)c1ccc(F)c(Nc2ncc(Cl)c(Nc3ccccc3NS(C)(=O)=O)n2)c1 [Example 53, 3-(5-chloro-4-(2-(methylsulfonamido)phenylamino)pyrimidin-2-ylamino)-4-fluoro-N-(2-methoxyethyl)benzamide] | < 100 nM | > 10000 nM
CS(=O)(=O)Nc1ccccc1Nc1nc(Nc2cc(C(=O)N3CCOCC3)ccc2F)ncc1Cl [Example 54, N-(2-(5-chloro-2-(2-fluoro-5-(morpholine-4-carbonyl)phenylamino)pyrimidin-4-ylamino)phenyl)methanesulfonamide] | < 100 nM | > 10000 nM
